In patent US6737383B1, “Herbicidal oxadiazolidines” (priority 1999, dated 2004):

Key:
[1] = tested on: blackgrass; test: Test B pre/postemergence blackgrass; type: in vivo, Alopecurus myosuroides
Outline: (§1)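 Response is a visual 0-to-10 score relative to untreated plants, where 0 means no effect and 10 means complete control, taken twelve to sixteen days after application. Treatments went onto soil at planting and onto foliage of 1- to 4-leaf plants, using a surfactant-containing non-phytotoxic solvent.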

[2] = tested on: soybean; test: Test B pre/postemergence soybean; type: in vivo, Glycine max
Outline: as §1

[3] = tested on: cocklebur; test: Test B pre/postemergence cocklebur; type: in vivo, Xanthium strumarium
Outline: as §1

[4] = tested on: giant foxtail; test: Test B pre/postemergence giant foxtail; type: in vivo, Setaria faberii
Outline: as §1

[5] = tested on: morningglory; test: Test B pre/postemergence morningglory; type: in vivo, Ipomoea hederacea
Outline: as §1

[6] = tested on: duck salad; test: Test B flood test duck salad; type: in vivo, Heteranthera limosa
Outline: (§2)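 Plants were grown to the 2-leaf stage before treatment with test chemical, then held in a greenhouse for twelve to sixteen days. Injury was visually rated against untreated controls on a 0–10 scale, where 0 is no effect and 10 is complete control.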

[7] = tested on: rape; test: Test B pre/postemergence rape; type: in vivo, Brassica napus
Outline: as §1

[8] = tested on: surinam grass; test: Test B pre/postemergence surinam grass; type: in vivo, Brachiaria decumbens
Outline: as §1

[9] = tested on: bedstraw; test: Test B pre/postemergence bedstraw; type: in vivo, Galium aparine
Outline: as §1

[10] = tested on: sugar beet; test: Test B pre/postemergence sugar beet; type: in vivo, Beta vulgaris
Outline: as §1

[11] = tested on: crabgrass; test: Test B pre/postemergence crabgrass; type: in vivo, Digitaria sanguinalis
Outline: as §1

[12] = tested on: wild oat; test: Test B pre/postemergence wild oat; type: in vivo, Avena fatua
Outline: as §1

[13] = tested on: velvetleaf; test: Test B pre/postemergence velvetleaf; type: in vivo, Abutilon theophrasti
Outline: as §1

[14] = tested on: bamyardgrass; test: Test B flood test barnyardgrass; type: in vivo, Echinochloa crus-galli
Outline: as §2

[15] = tested on: pigweed; test: Test B pre/postemergence pigweed; type: in vivo, Amaranthus retroflexus
Outline: as §1

[16] = tested on: smallflower flatsedge; test: Test B flood test smallflower flatsedge; type: in vivo, Cyperus difformis
Outline: as §2

[17] = tested on: rice; test: Test B flood test rice; type: in vivo, Oryza sativa
Outline: as §2

[18] = tested on: corn; test: Test B pre/postemergence corn; type: in vivo, Zea mays
Outline: as §1

[19] = tested on: wheat; test: Test B pre/postemergence wheat; type: in vivo, Triticum aestivum
Outline: as §1

[20] = tested on: purple nutsedge; test: Test B pre/postemergence purple nutsedge; type: in vivo, Cyperus rotundus
Outline: as §1

[21] = Postemergence, Rate 62 g/ha, scale 0 to 10, 0 is no effect, 10 is complete control
[22] = Postemergence, Rate 125 g/ha, scale of 0 to 10 where 0 is no effect and 10 is complete control
[23] = Postemergence, Rate 250 g/ha, scale of 0 to 10, 0 is no effect, 10 is complete control
[24] = Postemergence, Rate 500 g/ha, scale of 0 to 10 where 0 is no effect and 10 is complete control
[25] = Preemergence, Rate 62 g/ha, scale 0 to 10 (0 no effect, 10 complete control)
[26] = Preemergence, Rate 125 g/ha, scale of 0 to 10 where 0 is no effect and 10 is complete control
[27] = Preemergence, Rate 500 g/ha, scale of 0 to 10 where 0 is no effect and 10 is complete control
[28] = Rate 62 g/ha, flood test species, Pre-emergence, visual evaluation after twelve to sixteen days
[29] = Rate 125 g/ha, under heading Pre-emergence, flood test species, visual evaluation after twelve to sixteen days
[30] = Rate 250 g/ha, Pre-emergence (flood test species), scale 0 to 10, 0 is no effect, 10 is complete control
[31] = Rate 500 g/ha, Pre-emergence section of Table B, 0 to 10 scale (0 no effect, 10 complete control)

With `CCC(C)n1c(=O)on(C(=O)N(c2ccccc2)C(C)C)c1=O` (stereo not drawn) [Compound 610] the “Plant response rating, Blackgrass” value [1, 21] was 8, the “Plant response rating, Blackgrass” value [1, 22] was 9 and the “Blackgrass plant response rating” value [1, 23] was 9. For the same compound, the “Plant response rating, Blackgrass” value [1, 24] was 10, the “Blackgrass plant response rating” value [1, 25] was 8 and the “Blackgrass plant response rating” value [1, 26] was 9. The “Blackgrass plant response rating (0 to 10 scale)” value ([1]; Preemergence, Rate 250 g/ha) was 10, the “Blackgrass plant response rating” value [1, 27] was 10 and the “Plant response rating, Soybean” value [2, 21] was 5. For the same compound, the “Plant response rating, Soybean” value [2, 22] was 7, the “Soybean plant response rating” value [2, 23] was 8 and the “Plant response rating, Soybean” value [2, 24] was 9. For the same compound, the “Soybean plant response rating” value [2, 25] was 0, the “Soybean plant response rating” value [2, 26] was 6 and the “Plant response rating, Soybean” value [2, 27] was 8. For the same compound, the “Plant response rating, Cocklebur” value [3, 21] was 0, the “Plant response rating, Cocklebur” value [3, 22] was 1 and the “Cocklebur plant response rating” value [3, 23] was 0. For the same compound, the “Plant response rating, Cocklebur” value [3, 24] was 2, the “Cocklebur plant response rating” value [3, 25] was 0 and the “Cocklebur plant response rating” value [3, 26] was 0. For the same compound, the “Cocklebur plant response rating (0 to 10 scale)” value ([3]; Preemergence, Rate 250 g/ha) was 0, the “Plant response rating, Cocklebur” value [3, 27] was 3 and the “Plant response rating, Giant foxtail” value [4, 21] was 8. The “Plant response rating, Giant foxtail” value [4, 22] was 7, the “Giant foxtail plant response rating” value [4, 23] was 9 and the “Plant response rating, Giant foxtail” value [4, 24] was 9. For the same compound, the “Giant foxtail plant response rating” value [4, 25] was 9, the “Giant foxtail plant response rating” value [4, 26] was 10 and the “Plant response rating, Giant foxtail” value [4, 27] was 10. For the same compound, the “Plant response rating, Morningglory” value [5, 21] was 8, the “Plant response rating, Morningglory” value [5, 22] was 8 and the “Morningglory plant response rating” value [5, 23] was 8. The “Plant response rating, Morningglory” value [5, 24] was 9, the “Morningglory plant response rating” value [5, 25] was 0 and the “Morningglory plant response rating” value [5, 26] was 3. The “Plant response rating, Morningglory” value [5, 27] was 8, the “Plant response rating, Ducksalad (0 to 10 scale, 0 is no effect, 10 is complete control)” value [6, 28] was 0 and the “Ducksalad plant response rating (0 to 10 scale, 0 is no effect, 10 is complete control)” value [6, 29] was 0. The “Ducksalad plant response rating” value [6, 30] was 0, the “Ducksalad plant response rating” value [6, 31] was 7 and the “Plant response rating, Rape” value [7, 21] was 0. For the same compound, the “Plant response rating, Rape” value [7, 22] was 2, the “Rape plant response rating” value [7, 23] was 3 and the “Plant response rating, Rape” value [7, 24] was 5. The “Rape plant response rating” value [7, 25] was 3, the “Rape plant response rating” value [7, 26] was 8 and the “Plant response rating, Rape” value [7, 27] was 10. The “Plant response rating, B. signalgrass” value [8, 21] was 0, the “Plant response rating, B. signalgrass” value [8, 22] was 6 and the “B. signalgrass plant response rating” value [8, 23] was 7. The “Plant response rating, B. signalgrass” value [8, 24] was 9, the “B. signalgrass plant response rating” value [8, 25] was 6 and the “B. signalgrass plant response rating” value [8, 26] was 8. For the same compound, the “B. signalgrass plant response rating (0 to 10 scale, 0 is no effect, 10 is complete control)” value ([8]; Preemergence, Rate 250 g/ha) was 9, the “B. signalgrass plant response rating” value [8, 27] was 10 and the “Plant response rating, Bedstraw” value [9, 21] was 0. The “Bedstraw plant response rating” value [9, 23] was 4, the “Plant response rating, Bedstraw” value [9, 24] was 9 and the “Bedstraw plant response rating” value [9, 27] was 10. For the same compound, the “Plant response rating, Sugarbeets” value [10, 21] was 0, the “Plant response rating, Sugarbeets” value [10, 22] was 0 and the “Sugarbeets plant response rating” value [10, 23] was 0. For the same compound, the “Plant response rating, Sugarbeets” value [10, 24] was 0, the “Sugarbeets plant response rating” value [10, 25] was 3 and the “Sugarbeets plant response rating” value [10, 26] was 7. For the same compound, the “Plant response rating, Sugarbeets” value [10, 27] was 8, the “Plant response rating, Crabgrass” value [11, 21] was 9 and the “Plant response rating, Crabgrass” value [11, 22] was 9. The “Crabgrass plant response rating” value [11, 23] was 9, the “Plant response rating, Crabgrass” value [11, 24] was 9 and the “Crabgrass plant response rating” value [11, 25] was 9. The “Crabgrass plant response rating” value [11, 26] was 10, the “Plant response rating, Crabgrass” value [11, 27] was 10 and the “Plant response rating, Wild oats” value [12, 21] was 0. The “Plant response rating, Wild oats” value [12, 22] was 3, the “Wild oats plant response rating” value [12, 23] was 5 and the “Plant response rating, Wild oats” value [12, 24] was 9. The “Wild oats plant response rating” value [12, 25] was 5, the “Wild oats plant response rating” value [12, 26] was 6 and the “Plant response rating, Wild oats” value [12, 27] was 10. For the same compound, the “Plant response rating, Velvetleaf” value [13, 21] was 0, the “Plant response rating, Velvetleaf” value [13, 22] was 3 and the “Velvetleaf plant response rating” value [13, 23] was 7. For the same compound, the “Plant response rating, Velvetleaf” value [13, 24] was 7, the “Velvetleaf plant response rating” value [13, 25] was 7 and the “Velvetleaf plant response rating” value [13, 26] was 7. The “Plant response rating, Velvetleaf” value [13, 27] was 10, the “Plant response rating, Barnyardgrass (0 to 10 scale, 0 is no effect, 10 is complete control)” value [14, 28] was 0 and the “Barnyardgrass plant response rating (0 to 10 scale, 0 is no effect, 10 is complete control)” value [14, 29] was 0. For the same compound, the “Barnyardgrass plant response rating” value [14, 30] was 0, the “Barnyardgrass plant response rating” value [14, 31] was 8 and the “Plant response rating, Redroot pigweed” value [15, 21] was 0. The “Plant response rating, Redroot pigweed” value [15, 22] was 2, the “Redroot pigweed plant response rating” value [15, 23] was 6 and the “Plant response rating, Redroot pigweed” value [15, 24] was 7. The “Redroot pigweed plant response rating” value [15, 25] was 10, the “Redroot pigweed plant response rating” value [15, 26] was 10 and the “Plant response rating, Redroot pigweed” value [15, 27] was 10. The “Plant response rating, S. Flatsedge (0 to 10 scale, 0 is no effect, 10 is complete control)” value [16, 28] was 0, the “S. Flatsedge plant response rating (0 to 10 scale, 0 is no effect, 10 is complete control)” value [16, 29] was 0 and the “S. Flatsedge plant response rating” value [16, 30] was 0. For the same compound, the “S. Flatsedge plant response rating” value [16, 31] was 8, the “Plant response rating, Rice (0 to 10 scale, 0 is no effect, 10 is complete control)” value [17, 28] was 0 and the “Rice plant response rating (0 to 10 scale, 0 is no effect, 10 is complete control)” value [17, 29] was 0. For the same compound, the “Rice plant response rating” value [17, 30] was 2, the “Rice plant response rating” value [17, 31] was 8 and the “Plant response rating, Corn” value [18, 21] was 0. For the same compound, the “Plant response rating, Corn” value [18, 22] was 0, the “Corn plant response rating” value [18, 23] was 2 and the “Plant response rating, Corn” value [18, 24] was 5. The “Corn plant response rating” value [18, 25] was 0, the “Corn plant response rating” value [18, 26] was 3 and the “Corn plant response rating (0 to 10 scale)” value ([18]; Preemergence, Rate 250 g/ha) was 7. For the same compound, the “Plant response rating, Corn” value [18, 27] was 8, the “Plant response rating, Wheat” value [19, 21] was 0 and the “Plant response rating, Wheat” value [19, 22] was 1. The “Wheat plant response rating” value [19, 23] was 4, the “Plant response rating, Wheat” value [19, 24] was 5 and the “Wheat plant response rating” value [19, 25] was 2. For the same compound, the “Wheat plant response rating” value [19, 26] was 2, the “Plant response rating, Wheat” value [19, 27] was 6 and the “Plant response rating, Nutsedge” value [20, 21] was 0. The “Plant response rating, Nutsedge” value [20, 22] was 0, the “Nutsedge plant response rating” value [20, 23] was 5 and the “Plant response rating, Nutsedge” value [20, 24] was 6. The “Nutsedge plant response rating” value [20, 25] was 0, the “Nutsedge plant response rating” value [20, 26] was 0 and the “Plant response rating, Nutsedge” value [20, 27] was 3.
